Data taken from US20110034526A1, “Benzimidazole Compounds” (Wyeth LLC, priority 2007, published 2011).
Like-named read-outs stand apart in the source and are kept apart here.

How the values were obtained:
[1] = target: T1, human LXRα (Homo sapiens, UniProt Q13133); assay: Ligand-binding test procedure for human LXRα (3H T0901317 tracer, flash plates); details: biotinylated hLXRα, tracer 3H T0901317
T1 construct: biotin (biotinylated); made in house; host or cells: E. coli (crude extract)
T1 sequence (Q13133 1-447): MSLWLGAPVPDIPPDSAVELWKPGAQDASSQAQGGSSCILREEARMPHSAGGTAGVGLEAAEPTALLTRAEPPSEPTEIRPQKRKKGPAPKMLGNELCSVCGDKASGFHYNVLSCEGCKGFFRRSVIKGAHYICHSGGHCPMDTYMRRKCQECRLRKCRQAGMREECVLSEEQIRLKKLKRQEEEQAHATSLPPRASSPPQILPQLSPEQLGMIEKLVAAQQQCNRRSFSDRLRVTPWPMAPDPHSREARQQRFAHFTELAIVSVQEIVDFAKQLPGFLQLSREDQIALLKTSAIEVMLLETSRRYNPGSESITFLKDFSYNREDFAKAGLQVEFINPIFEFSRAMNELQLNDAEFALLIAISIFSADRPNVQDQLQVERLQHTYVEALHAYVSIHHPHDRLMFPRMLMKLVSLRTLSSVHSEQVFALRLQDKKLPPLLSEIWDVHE

[2] = target: T2, human LXRβ (Homo sapiens, UniProt P55055); assay: Ligand-binding test procedure for human LXRβ (3H T0901317 tracer, flash plates)
T2 construct: biotin (biotinylated); made in house; host or cells: E. coli (crude extract)
T2 sequence (P55055 1-460): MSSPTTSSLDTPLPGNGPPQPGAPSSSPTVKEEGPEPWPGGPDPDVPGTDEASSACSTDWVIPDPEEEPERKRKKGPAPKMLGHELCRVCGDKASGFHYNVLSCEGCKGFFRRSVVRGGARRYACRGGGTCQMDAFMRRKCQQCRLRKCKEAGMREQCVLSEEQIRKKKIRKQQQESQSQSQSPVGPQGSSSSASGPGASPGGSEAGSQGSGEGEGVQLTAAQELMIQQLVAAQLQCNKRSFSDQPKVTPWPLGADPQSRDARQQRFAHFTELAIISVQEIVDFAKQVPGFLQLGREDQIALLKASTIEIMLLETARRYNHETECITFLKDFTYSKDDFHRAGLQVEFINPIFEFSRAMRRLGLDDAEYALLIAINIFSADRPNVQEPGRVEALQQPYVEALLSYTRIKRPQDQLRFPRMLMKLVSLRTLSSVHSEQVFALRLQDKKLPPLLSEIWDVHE

[3] = tested on: ABCA1 gene; assay: Quantitative analysis of ABCA1 gene regulation in THP-1 cells (real-time PCR); assay type: cell-based, human; details: read-out: EC50 ABCA1
Method: The compounds of formula (I) effect on the regulation of the ABCA1 gene was evaluated using the following procedure.
The THP-1 monocytic cell line (ATCC # TIB-202) was obtained from American Type Culture Collection (Manassas, Va.) and cultured in RPMI 1640 medium (Gibco, Carlsbad, Calif.) containing 10% FBS, 2 mM L-glutamine, and 55 uM beta-Mercaptoethanol (BME). […] Differentiated THP-1 cells were treated with test compounds or ligands dissolved in DMSO (Sigma, D-8779) in culture medium lacking phorbal ester. […] Unstimulated cells treated with vehicle were included as negative controls on each plate. An LXR agonist reference, N-(2,2,2-trifluoro-ethyl)-N-[4-(2,2,2-trifluoro-1-hydroxy-1-trifluoromethyl-ethyl)-phenyl]-benzenesulfonamide (Schultz, Joshua R., Genes & Development (2000), 14(22), 2831-2838), was dosed at 1.0 uM and served as a positive control. […] Results of antagonist analysis are expressed as % antagonism and IC50 (in μM).
Total cellular RNA was isolated from treated cells cultured in 96-well plates using PrepStation 6100 (Applied Biosystems, Foster City, Calif.), according to the manufacturer's recommendations. RNA was resuspended in ribonuclease-free water and stored at −70° C. prior to analysis. RNA concentrations were quantitated with RiboGreen test procedure, #R-11490 (Molecular Probes, Eugene, Oreg.).
Gene-specific mRNA quantitation was performed by real-time PCR with the Perkin Elmer Corp. chemistry on an ABI Prism 7700 Sequence detection system (Applied Biosystems, Foster City, Calif.) according to the manufacturer's instructions. Samples (50-100 ng) of total RNA were assayed in duplicate or triplicate in 50 μl reactions using one-step RT-PCR and the standard curve method to estimate specific mRNA concentrations. Sequences of gene-specific primer and probe sets were designed with Primer Express Software (Applied Biosystems, Foster City, Calif.). […] RT and PCR reactions were performed according to PE Applied Biosystem's protocol for Taqman Gold RT-PCR or Qiagen's protocol for Quantitect probe RT-PCR. Relative levels of ABCA1 mRNA are normalized using GAPDH mRNA or 18S rRNA probe/primer sets purchased commercially (Applied Biosystems, Foster City, Calif.).
Mean, standard deviation and statistical significance of duplicate evaluations of RNA samples were assessed using ANOVA, one-way analysis of variance using SAS analysis.

[4] = Gene regulation by LXR (Human), differentiated THP-1 cells, 18 hrs, ABCA1 mRNA

Q: With `Cc1nc2c(C(F)(F)F)cccc2n1-c1cccc(-c2cccc(S(C)(=O)=O)c2)c1` [Example 75, 2-methyl-1-[3′-(methylsulfonyl)biphenyl-3-yl]-4-(trifluoromethyl)-1H-benzimidazole] as the compound, how does the IC50 [1] read?
A: 304 nM

Q: What about the IC50 [2] of the same compound?
A: 12.7 nM

Q: And the EC50 ([3]; Homo sapiens, THP-1, 18 h)?
A: 215 nM

Q: With `Cc1nc2c(C(F)(F)F)cccc2n1-c1cccc(Oc2cccc(S(=O)(=O)CCCS(C)(=O)=O)c2)c1` [Example 76, 2-methyl-1-[3-(3-{[3-(methylsulfonyl)propyl]sulfonyl}phenoxy)phenyl]-4-(trifluoromethyl)-1H-benzimidazole] as the compound, how does the IC50 [1] read?
A: 319 nM

Q: What about the IC50 [2] of the same compound?
A: 20 nM

Q: What about the EC50 ([3]; Homo sapiens, THP-1, 18 h) of the same compound?
A: 155 nM

Q: `CS(=O)(=O)c1cc(F)cc(Oc2ccc(Cl)c(-n3cnc4c(C(F)(F)F)cccc43)c2)c1` [Example 82, 1-{2-chloro-5-[3-fluoro-5-(methylsulfonyl)phenoxy]phenyl}-4-(trifluoromethyl)-1H-benzimidazole] was tested. Which IC50 [1] did it give?
A: 102 nM

Q: And the IC50 [2]?
A: 4.9 nM

Q: And the EC50 ([3]; Homo sapiens, THP-1, 18 h)?
A: 1210 nM

Q: `CS(=O)(=O)c1ccc(Oc2ccc(Cl)c(-n3cnc4c(C(F)(F)F)cccc43)c2)cc1` [Example 83, 1-{2-chloro-5-[4-(methylsulfonyl)phenoxy]phenyl}-4-(trifluoromethyl)-1H-benzimidazole] was tested. Which IC50 [1] did it give?
A: 277 nM

Q: And the IC50 [2]?
A: 33 nM

Q: And the EC50 ([3]; Homo sapiens, THP-1, 18 h)?
A: 110 nM

Q: Which IC50 [1] does the source give for `Cc1cc(Oc2cccc(S(=O)(=O)C(C)C)c2)ccc1-n1c(C)nc2c(C(F)(F)F)cccc21` [Example 95, 2-methyl-1-(2-methyl-4-{3-[(1-methylethyl)sulfonyl]phenoxy}phenyl)-4-(trifluoromethyl)-1H-benzimidazole] here?
A: 1290 nM

Q: What about the IC50 [2] of the same compound?
A: 61 nM

Q: And the EC50 [3, 4]?
A: 409 nM

Q: How did the IC50 [1] turn out when `Cc1nc2c(C(F)(F)F)cccc2n1-c1cccc(OCc2cccc(S(C)(=O)=O)c2)c1` [Example 107, 2-methyl-1-(3-{[3-(methylsulfonyl)benzyl]oxy}phenyl)-4-(trifluoromethyl)-1H-benzimidazole] was run?
A: 1960 nM

Q: What about the IC50 [2] of the same compound?
A: 120 nM

Q: And the EC50 [3, 4]?
A: 3530 nM
